Test results: patent US20180105492A1, “COMPOUNDS DERIVED FROM 3-ALKYLAMINE-1H-INDOLYL ACRYLATE AND THEIR USE IN THE TREATMENT OF NEURODEGENERATIVE DISEASES” (FUNDACION PARA LA INVESTIGACION BIOMEDICA DEL HOSPITAL …, priority 2014, published 2018)

Key:
[1] = Oxygen radical absorbance capacity (ORAC), free radical scavenger capacity; conditions: fluorescein/AAPH, pH 7.4, trolox = 1
Method: In order to study the potential antioxidant effect of the compounds of the invention, we performed an oxygen radical absorbance capacity (ORAC) experiment.
For studying the free radical scavenger capacity, we measured the degree peroxide radical inhibition. Thus, scavenger capacity is measured as trolox equivalents and includes the disappearance of free radicals over time and the decrease of oxidative damage at the end of the experiment. The protocol used is based in the protocol developed by Ou and col. (Ou y col., 2001, J Agric Food Chem, 49: 4619-26) partially modified by Dávalos and col. (Davalos y col., 2004, J Agric Food Chem, 52: 48-54). The reaction was performed in phosphate tampon 75 mM (pH 7.4), with a final volume of 200 μL. 150 μL of fluorescein (final concentration of 70 nM) with 25 μL the compound of study at the desired concentration in triplicates, using surface transparent 96 well black plates for measuring fluorescence.
The mixture was pre-incubated during 15 min at 37° C. and, afterwards, 25 μL of a solution containing 2,2′-Azobis(2-amidinopropane) dihydrochloride (AAPH) (final concentration; 12 mM) were rapidly added. Fluorescence was immediately measured using a plate reader fluostar optima, using the filters of emission and excitation of […], respectively. Fluorescence intensity was measured during 90 min. Each compound was measured at 6 different concentrations. In the assay, fluorescein+AAPH in phosphate tampon was added as a blank and a calibration curve was performed using Trolox (1-8 μM). Every variable was prepared in duplicates and at least three independent experiments were performed for each compound. The curves of the compounds (F.I.—time) were normalized respect to the curve of the blank for each experiment and area under the curve (AUC) of the decreasing in fluorescence was calculated. AUC value of each compound was calculated subtracting the AUC of the blank. Regression curves between AUC and concentration of the compound were calculated for each of the samples. ORAC values were expressed as trolox equivalents with respect to the calibration curve of each assay, where the trolox value was considered 1.

[2] = tested on: Nrf2 transcription factor (Nrf2-ARE); experiment: Nrf2-ARE induction, luciferase activity in AREc32 (MCF7 cells stably transfected with ARE-LUC); type: cell-based; conditions: Homo sapiens, 24 h, basal = 1, read-out: Relative Luciferase activity (response versus basal)
Method: For the study of Nrf2 transcription factor, the cellular line AREC32 was used, which is characterized for being stably transfected with the reporter gene of Luciferase linked to the ARE sequence. In the presence electrophilic compounds or oxidative stress, Nrf2 factor binds to ARE sequences, activating luciferase expression and producing a proportional quantity of luciferase. The AREc32 cells were cultured in DMEM media with glutamax, supplemented with 10% fetal bovine serum (FBS), 1% penicillin-streptomycin and 1.6% geneticine (G418) (obtained from GIBCO, Madrid, Spain). Cells were cultured in 75 cm flasks with 11 mL of specific media, incubated at 37° C. and 5% of CO2. Cells were passed every 4-6 days (1:4), whenever the confluence reached 80%. For the experiments, cells were cultured in transparent surface 96 well plates at a density of […] with 100 μL/well. After 24 h in culture, cells were treated with the compounds at different concentrations (1, 10, 30 and 60 μM) during 24 h at 37° C. and 5% CO2. In every experiment it was also included a basal variable, a variable with 10 μM tert-butyl hydroquinone (TBHQ) (positive control) and the variables of the study in a final volume of 100 μL. After an incubation of 24 h with the compounds, luciferase activity was measured by bioluminescence using the commercial kit “Luciferase assay system” (Promega E1500). For that, treatments were removed and cells were washed with 100 μL of PBS 0.1 M. After washing, 20 μL of “lysis buffer” reactive was added to each well. 10 minutes later, luminescence was measured using the multi-well reader FluoStar optima (BMG labtech).
Luminescence was measured in arbitrary units and is directly proportional to luciferase quantity in the wells, which is also directly proportional to Nrf2 transcription factor induction by the specific compound at the established concentration. Measurements were made in duplicate and values were normalized to the basal luminescence value, considered as 1.
The results of Nrf2 induction obtained for the compounds 1 to 16 are shown in Table 1 and are expressed as induction, considering 1 the non-treated cells.

SH-SY5Y cells = experiment: Toxicity in SH-SY5Y neuronal cell line, reduction of cell viability (MTT); type: cell-based; conditions: 24 h incubation, MTT, concentration reducing viability to 50% of basal
Method: In order to assess cellular viability, we measured the metabolic reduction of 3-(4,5-Dimethylthiazol-2-yl)-2,5 diphenyltetrazolium bromide (MTT). MTT is an indirect assay to measure cellular viability. It is a colorimetric method based on the reduction of 3-(4,5-Dimethylthiazol-2-yl)-2,5 diphenyltetrazolium. This process is performed by the mitochondrial enzyme succinate-dehydrogenase present in metabolic active cells. Thus, the water-soluble yellow MTT (tetrazolium salt) is transformed into a insoluble purple compound (formazan). Quantity of living cells is directly proportional to the quantity of formazan (Mosmann, 1983, J Immunol Methods, 65: 55-63). […] Therefore, with this assay we can measure cellular surviving and proliferation and also, we can determine the cytotoxicity of potential neuroprotective compounds. In order to assess cellular viability in SH-SY5Y cell line, we added 30 μl/well of MTT (5 mg/mL) and after 2 h, medium was carefully removed to avoid losing the formazan and was diluted in 300 μL of DMSO. Afterwards, samples were transferred to a 96 well-plate and the absorbance was measured at 570 nm using a absorbance/fluorescence reader FluoStar optima®. Every MTT assay was performed in triplicates. Absorbance values obtained with the toxic alone were subtracted to the absorbance values obtained in basal conditions (without treatment). That result was considered as the 100% of cell death and the values obtained with the compounds in the presence of the toxic stimulus were normalized as percentages of that value. For determining the surviving percentage, those percentages of cell death were subtracted to 100. […]
In order to further study its safety profile, the effect of the derivatives on neuronal cells used for neuroprotection experiments, the SH-SY5Y human neuroblastoma cells, was also evaluated. Maintenance and culture methods of this cell line have been described above. For toxicity experiments, SH-SY5Y cells were plated in 96-well plates at the density of 6×10 ^4 cells/well. The experimental conditions were the same as those described for the toxicity study in HepG2 cells.
The results obtained are shown in Table 6 expressed as the lethal dose 50 (LD50), or needed concentration to reduce to 50% the viability of basal conditions (without treatment), measured by the MTT reduction method.

With `C/C=C/C(=O)Oc1ccc2[nH]cc(CCNC(C)=O)c2c1` [Compound 1, 3-(2-acetamidoethyl)-1H-indol-5-yl (E)-2-butenoate] as the molecule, how does the “ORAC (Trolox eq.)” value [1] read?
The value was 8.64 ± 1.98 Trolox eq.

And the fold induction at 10 µM ([2]; 10 μM)?
The fold induction at 10 µM was 2.34 ± 0.2.

And the fold induction at 30 µM ([2]; 30 μM)?
Its fold induction at 30 µM is 12.1 ± 1.3.

What about the fold induction at 60 µM ([2]; 60 μM) of the same molecule?
Its fold induction at 60 µM is 30.7 ± 1.7.

What about the “SH-SY5Y LD50” value (SH-SY5Y cells) of the same molecule?
The value was over 100 µM.
